Read-outs that look alike come from different tables or passages of the source.
Key:
MAO-A = biological target: T1, MAO-A (Mus musculus, UniProt Q64133); assay: Cerebral MAO-A activity, mitochondria-enriched mouse brain fraction (kynuramine, fluorimetric); format: biochemical; conditions: for Concentrations with significant inhibition of MAO-A activity: tested 25–200 μM, Dunnett vs control
T1 construct: Mitochondria-enriched brain preparations were obtained in accordance with established methodology outlined in literature; from tissue; host or cells: mouse brain, mitochondria-enriched fraction
T1 sequence (Q64133 1-526): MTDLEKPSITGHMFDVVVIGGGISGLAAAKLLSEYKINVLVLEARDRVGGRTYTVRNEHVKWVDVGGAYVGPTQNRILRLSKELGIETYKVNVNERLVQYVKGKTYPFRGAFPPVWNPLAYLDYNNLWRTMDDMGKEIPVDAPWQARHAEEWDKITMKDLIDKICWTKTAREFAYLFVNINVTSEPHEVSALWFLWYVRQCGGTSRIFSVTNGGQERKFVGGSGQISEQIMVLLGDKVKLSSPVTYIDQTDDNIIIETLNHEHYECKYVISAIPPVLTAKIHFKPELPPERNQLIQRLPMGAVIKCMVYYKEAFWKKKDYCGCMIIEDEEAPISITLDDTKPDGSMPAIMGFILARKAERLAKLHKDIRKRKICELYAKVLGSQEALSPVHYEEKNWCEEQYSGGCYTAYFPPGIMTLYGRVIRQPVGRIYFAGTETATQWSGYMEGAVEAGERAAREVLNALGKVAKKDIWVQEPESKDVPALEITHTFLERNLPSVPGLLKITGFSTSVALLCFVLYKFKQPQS
Experimental: (§1) Mitochondria-enriched brain preparations were obtained in accordance with established methodology outlined in literature. The homogenate was prepared using the mouse brain tissue and a homogenization buffer (Na2PO4/KH2PO4/sucrose) at a ratio of 1:4 (w/v). The homogenate was centrifuged at 900g at 4 °C for 5 min. The resulting supernatant was separated and subjected to centrifugation at 12,500g for 15 min. The resulting pellet was resuspended in the homogenization buffer and subjected to a further round of centrifugation under identical conditions. Finally, the mitochondrial pellet obtained was reconstituted in an assay buffer solution (Na2PO4/KH2PO4/KCl). Protein concentration was estimated using the Bradford method and standardized as 1 mg/mL for the experiments.
(§2) MAO activity was assessed following the method outlined by Krajl, with some modifications by Matsumoto. Briefly, a 100 μL aliquot of the mitochondria-rich fraction was incubated at 37 °C for 5 min with specific MAO inhibitors: clorgyline (250 nM, a MAO-A inhibitor), or pargyline (250 nM, a MAO-B inhibitor). Then, 10 μL of each compound was introduced at varying concentrations (25–200 μM). Water (10 μL) was used in the control tubes. Afterward, the substrate, 20 μL of kynuramine dihydrobromide, was added to achieve a final concentration of 90 μM for MAO-A and 60 μM for MAO-B. The samples were incubated at 37 °C for 30 min. The reaction was halted by the addition of 300 μL of 10% trichloroacetic acid (TCA). After centrifuging at 16,000g for 15 min, an aliquot of 800 μL of the supernatant was mixed with 1 mL of 1 M sodium hydroxide (NaOH). The samples were measured using a fluorimeter with excitation at 315 nm and emission at 380 nm.

MAO-B = biological target: T2, MAO-B (Mus musculus, UniProt Q8BW75); assay: Cerebral MAO-B activity, mitochondria-enriched mouse brain fraction (kynuramine, fluorimetric); format: biochemical
T2 construct: Mitochondria-enriched brain preparations were obtained in accordance with established methodology outlined in literature; from tissue; host or cells: mouse brain, mitochondria-enriched fraction
T2 sequence (Q8BW75 1-520): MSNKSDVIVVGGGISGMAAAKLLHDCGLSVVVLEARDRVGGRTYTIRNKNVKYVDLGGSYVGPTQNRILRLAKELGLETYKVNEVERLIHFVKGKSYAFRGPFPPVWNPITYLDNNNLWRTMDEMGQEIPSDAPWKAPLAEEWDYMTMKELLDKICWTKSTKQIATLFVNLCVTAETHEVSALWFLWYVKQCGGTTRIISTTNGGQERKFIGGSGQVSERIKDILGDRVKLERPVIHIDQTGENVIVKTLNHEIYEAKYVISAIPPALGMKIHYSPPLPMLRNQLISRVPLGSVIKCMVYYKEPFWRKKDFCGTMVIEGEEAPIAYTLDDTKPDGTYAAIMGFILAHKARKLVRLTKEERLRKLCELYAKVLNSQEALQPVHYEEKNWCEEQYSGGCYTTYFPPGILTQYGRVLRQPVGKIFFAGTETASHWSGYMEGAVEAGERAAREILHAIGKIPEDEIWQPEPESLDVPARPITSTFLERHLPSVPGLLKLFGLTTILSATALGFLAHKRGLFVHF
Experimental: as §1, §2

male Swiss mice [1] = assay: Tail suspension test (TST); format: in vivo, mouse
Experimental: A behavioral screening was conducted using the three salts to determine their potential antidepressant-like actions (n = 7–9 mice/group).
(§3) A dosage of 5 mg/kg (intragastric route, i.g., by gavage) was administered to all groups receiving the salts. […] The TST was conducted 30 min following drug administration, with the OFT being performed 4 min prior to the TST.
(§4) Following the selection of the most promising salt during screening (Compound 3B), an analysis of the compound’s time-response curve was conducted in the mouse TST. For this purpose, the animals were divided into five groups: (I) control (water; i.g.), (II) the group receiving compound 3B 15 min prior to TST, (III) the group receiving compound 3B 30 min before TST, (IV) the group receiving compound 3B 60 min before TST, and (V) the group receiving compound 3B 120 min before TST. The dosage of salt was standardized at 5 mg/kg (i.g). OFT was conducted 4 min prior to the TST.
(§5) After choosing a suitable preadministration time, the dose–response curve of the compound at this fixed time was analyzed. The animals were categorized into […]: I) a control group (administered water; i.g.) and groups II, III, IV and V) receiving compound 3B at doses of 0.5 mg/kg, 1 mg/kg, 2.5 mg/kg, and 5 mg/kg (i.g.), respectively. […] Thirty minutes postadministration, the animals underwent the TST. Four minutes prior to the TST, they underwent the OFT.
This test aims to assess depressive-like behavior and antidepressant-like action of therapies by measuring immobility. […] The test was conducted using a mouse suspension box made of wood, measuring 50 cm × 21 cm × 21 cm, designed to prevent any visual or physical interaction among the animals. A suspension bar was positioned atop the box, and the mouse’s tail was affixed to the bar using adhesive tape. The test duration was 6 min, during which the animal’s latency to the first immobility episode and the total duration of immobility (sec) were assessed.

male Swiss mice [2] = assay: Open field test (OFT) before the TST; format: in vivo, mouse
Experimental: as §3, §4, §5
The aim of this behavioral test is to assess the locomotion and exploration behavior of the animals using an open field apparatus measuring 30 cm × 30 cm × 15 cm, constructed from plywood with a floor divided into nine quadrants, facilitating free movement for the animals. During the OFT, the animals were positioned in the center of the apparatus and subjected to a 5 min testing period, following the protocol outlined in literature. The number of quadrant crossings and rearings was recorded and quantified during testing phase.

[3] = salts 5 mg/kg i.g., fluoxetine 20 mg/kg i.p., 30 min before test

Structure (SMILES)	IC50 (MAO-A)	Concentrations with significant inhibition of MAO-A activity (MAO-A)	IC50 (MAO-B)	Minimum effective dose for antidepressant-like action (male Swiss mice [1]; TST, i.g., 30 min)	TST latency time to first immobility episode, screening (male Swiss mice [1]; [3])	TST total immobility time, screening (male Swiss mice [1]; [3])	Cohen-D effect size in TST (male Swiss mice [1]; screening, 5 mg/kg i.g., 30 min)	IC50 (MAO-A; mouse brain mitochondria-rich fraction, 25–200 μM, kynuramine 90 μM, read-out: IC50 for MAO-A)	IC50 (MAO-B; mouse brain mitochondria-rich fraction, 25–200 μM, kynuramine 60 μM, read-out: IC50 for MAO-B)	Concentrations with significant inhibition of MAO-B activity (MAO-B; tested 25–200 μM, Dunnett vs control)	OFT locomotor and exploratory activities, time-response experiment (male Swiss mice [2]; 5 mg/kg i.g., 15–120 min)	OFT number of crossings, dose–response experiment (male Swiss mice [2]; 0.5–5 mg/kg i.g.)	OFT number of rearings, dose–response experiment (male Swiss mice [2]; 3B 0.5–5 mg/kg i.g., fluoxetine 20 mg/kg i.p.)
O=C(C[n+]1ccccc1C[Se]c1ccccc1)c1ccccc1.[Br-] [Compound 3A, 1-(2-oxo-2-phenylethyl)-2-((phenylselanyl)methyl)pyridin-1-ium bromide]	238 µM	≥ 50 µM	129 µM	–	–	–	–	–	–	–	–	–	–
Cc1ccc(C(=O)C[n+]2ccccc2C[Se]c2ccccc2)cc1 [Compound 3B, 1-(2-oxo-2-(p-tolyl)ethyl)-2-((phenylselanyl)methyl)pyridin-1-ium bromide]	–	all concentrations tested	–	1 mg/kg	significantly increased latency time	shorter total immobility times	> 1.77	73.9 µM	91.1 µM	≥ 50 µM	did not affect the locomotor and exploratory activities	no changes were observed	did not impact on the exploratory behavior profile

Reference: publication PMC12498411, “Antidepressant-like Properties of a Selenium-Containing Pyridinium Salt Explored through In Vitro, In Vivo, and In Silico Approaches” (ACS Chemical Neuroscience, 2025)
